Assay results published in ChEMBL document CHEMBL1932955, “Discovery of potent small molecule inhibitors of DYRK1A by structure-based virtual screening and bioassay” (Bioorg Med Chem Lett, 2012).
pIC50: −log10 of the molar value.

Biological target: Dual specificity tyrosine-phosphorylation-regulated kinase 1A (Homo sapiens, UniProt Q13627)
Assay: Inhibition of GST-tagged human DYRK1A using dephosphorylated MBP as substrate after 10 mins by Kinase-Glo plus luminescent kinase assay

Molecule O=C(O[C@@H]1Cc2c(O)cc(O)cc2O[C@@H]1c1cc(O)c(O)c(O)c1)c1cc(O)c(O)c(O)c1 [EPIGALOCATECHIN GALLATE] has a pIC50 of 4.87.
